One may read the IC50 as the midpoint of a concentration-inhibition curve.

Assay type in all cases: cell-based
Assay [1] has as its system HeLa cells. The assay is described as follows: NKG2D and DNAM-1 ligand surface expression, IF and flow cytometry. The settings on record: data not shown. For orientation: A flow cytometer gives signals particle by particle.
The test system of assay [2] is RD rhabdomyosarcoma cells. The assay can be described thus: Growth inhibition, MTT, RD. The settings on record: Rhabdomyosarcoma cell, 48 h, read-out: IC50 ± SD RD.
The subject of assay [3] is OVCAR-8 ovarian carcinoma cells. The assay is described as follows: Growth inhibition of OVCAR-8 cells. The settings on record: Homo sapiens, OVCAR-8, 96 h, read-out: IC50 ± SD OVCAR-8.
The test system of assay [4] is HepG2 hepatocellular carcinoma cells. The assay can be described thus: Growth inhibition, MTT, HepG2. To be noted: Homo sapiens, HepG2, 48 h, read-out: IC50 ± SD HepG2.

Bounds are passed on as bounds.

In the case of `COc1cc(C(=O)c2ccn(-c3cccc(N)c3)c2)cc(OC)c1OC` [(1-(3-aminophenyl)-1H-pyrrol-3-yl)(3,4,5-trimethoxyphenyl)-methanone], in assay [1], the “induction of the NKG2D and DNAM-1 ligands” value is reported as “unable to induce”.
Consider `CC[C@]1(O)C[C@@H]2CN(CCc3c([nH]c4ccccc34)[C@@](C(=O)OC)(c3cc4c(cc3OC)N(C)[C@H]3[C@@](O)(C(=O)OC)[C@H](OC(C)=O)[C@]5(CC)C=CCN6CC[C@]43[C@@H]65)C2)C1` [VBL, vinblastine], for which the IC50 in assay [2] was found to be 0.053 ± 0.0025 µM; in assay [3], 0.015 ± 0.007 µM; in assay [4] it was 0.081 ± 0.0024 µM.
On to `CC(=O)O[C@H]1C(=O)[C@@]2(C)[C@H]([C@H](OC(=O)c3ccccc3)[C@]3(O)C[C@H](OC(=O)[C@H](O)[C@@H](NC(=O)c4ccccc4)c4ccccc4)C(C)=C1C3(C)C)[C@]1(OC(C)=O)CO[C@@H]1C[C@@H]2O` [PTX, Paclitaxel], for which, in assay [2], the concentration for half-maximal inhibition (IC50) was above 10 µM.

The values are drawn from PMC4552448 (Journal of medicinal chemistry, 2015).
